# Tested on: serine palmitoyltransferase (SPT) in SPTLC3 overexpressing HEK293 cells
# Assay: In vitro SPT activity with various acyl-CoA substrates (Example 1, FIG. 3)
# Format: biochemical
# Conditions: acyl-CoA 50 μM; activity with palmitoyl-CoA defined as 100%
# Protocol: FIG. 3 In vitro SPT activity with various acyl-CoA substrates (C12-CoA, C14-CoA, C16-CoA and C18:1-CoA) in control, SPTLC1, SPTLC2 and SPTLC3 overexpressing HEK293 cells. […] (For comparison the activity with palmitoyl-CoA is defined as 100%.)
# All acyl-CoAs were used at the same concentration (50 μM).
row,SMILES,"SPT activity with the acyl-CoA substrate in SPTLC3 overexpressing cells compared with control, SPTLC1 and SPTLC2 cells"
1,CCCCCCCCCCCC(=O)SCCNC(=O)CCNC(=O)[C@H](O)C(C)(C)COP(=O)(O)OP(=O)(O)OC[C@H]1O[C@@H](n2cnc3c(N)ncnc32)[C@H](O)[C@@H]1OP(=O)(O)O [lauryl-CoA],significantly higher activity
2,CCCCCCCC/C=C\CCCCCCCC(=O)SCCNC(=O)CCNC(=O)[C@H](O)C(C)(C)COP(=O)(O)OP(=O)(O)OC[C@H]1O[C@@H](n2cnc3c(N)ncnc32)[C@H](O)[C@@H]1OP(=O)(O)O [oleoyl-CoA],comparable for all cell lines
3,CCCCCCCCCCCCCCCCCC(=O)SCCNC(=O)CCNC(=O)[C@H](O)C(C)(C)COP(=O)(O)OP(=O)(O)OC[C@H]1O[C@@H](n2cnc3c(N)ncnc32)[C@H](O)[C@@H]1OP(=O)(O)O [stearoyl-CoA],comparable for all cell lines
